# From PMC9839752, “Formaldehyde reacts with N-terminal proline residues to give bicyclic aminals” (Communications Chemistry, 2023)
# Like-named read-outs stand apart in the source and are kept apart here. Peptide text beside a SMILES is read from it.
# Legend:
# [1] = 1H NMR time course of reaction of dipeptides with HCHO; format: physicochemical; conditions: dipeptide with 10-fold excess HCHO, pD 10, 1H NMR
# Protocol: Fig. 3 HCHO reacts with an N-terminal proline to form a methylene bridge between an N-terminal nitrogen and the adjacent peptide bond nitrogen. a Products of reactions between HCHO and the dipeptides AzeGlu (n = 1, 1), ProGlu (n = 2, 2), and PipGlu (n = 3, 3). A 10-fold molar excess of aqueous HCHO (410 µmol) was added to each dipeptide (41 µmol).
# The reactions of the dipeptides with HCHO (10-fold excess, pD 10) were studied in real time by ^1H NMR (Figs. 3c and S18). […] Dipeptide 2 was slower to react (2a formation rate 0.24 μM s^−1), while 3 was the slowest to react (3a formation rate 0.054 μM s^−1). […]
# (§1) NMR Time Course and Stability – Dipeptides
# The dipeptide (23.3 µmol) was dissolved in D 2O; the pD was adjusted to 10 (corresponding to pH 9.6) using NaOD and DCl (total volume: 1 mL, 23.3 mM stock). HCHO (30.0 mg, 1.0 mmol) was suspended with D2O in a sealed microwave vial and heated until a clear colourless solution was obtained; the pD was then adjusted with NaOD and DCl to 10 (total volume: 3 mL, 1/3 M stock). For time course measurements, the dipeptide stock solutions (100 μL, 2.33 μmol) at pD 10 and D 2O (400 μL) were mixed and recorded. HCHO (70 μL, 23.3 μmol, 10 equivalents) at pD 10 was added and progress was monitored for the indicated time. To investigate the stability of the NMR-observed HCHO adducts, a 40-fold excess with respect to starting material of the HCHO scavenger 1,3-cyclohexanedione (1,3-CHD, 93.2 μL from 1 M stock in D2O) was added. […]
# [2] = NMR stability of HCHO adducts to HCHO scavengers and pH; format: physicochemical; conditions: for stability of HCHO adduct to 1,3-cyclohexanedione (1,3-CHD): 40-fold excess 1,3-CHD, pD 10, analysis period 22 h
# Protocol: To investigate the stability and reversibility of the HCHO adducts (1a + b, 2a, 3a, 4a), the dipeptides were reacted with a 10-fold excess of HCHO at pD 10, then treated with the HCHO scavenger 1,3-cyclohexanedione (1,3-CHD)[14]. […]
# as §1
# The dipeptide (23.3 µmol) was dissolved in D 2O; the pD was adjusted to 10 (corresponding to pH 9.6) using NaOD and DCl (total volume: 1 mL, 23.3 mM stock). HCHO (30.0 mg, 1.0 mmol) was suspended with D2O in a sealed microwave vial and heated until a clear colourless solution was obtained; the pD was then adjusted with NaOD and DCl to 10 (total volume: 3 mL, 1/3 M stock). For time course measurements, the dipeptide stock solutions (100 μL, 2.33 μmol) at pD 10 and D 2O (400 μL) were mixed and recorded. HCHO (70 μL, 23.3 μmol, 10 equivalents) at pD 10 was added and progress was monitored for the indicated time. To investigate the stability of the NMR-observed HCHO adducts, a 40-fold excess with respect to starting material of the HCHO scavenger 1,3-cyclohexanedione (1,3-CHD, 93.2 μL from 1 M stock in D2O) was added.
# Additionally, stability studies of the HPLC -purified 2a and the corresponding pentapeptide PEPAK-HCHO adduct were conducted. To achieve a 40-fold excess of HCHO scavengers (46.8 μmol) with respect to peptide starting material, the appropriate volumes of GSH (186.4 μL from 250 mM stock), cysteine (46.6 μL from 1 M stock) or 1,3 -cyclohexanedione (46.6 μL from 1 M stock) were added to the peptide-HCHO adducts (50 μL, 1.17 μmol, 23.3 mM stock in D2O) in 400 μL of D2O, thoroughly mixed and recorded. To test for stability of the adduct in different pH conditions, HPLC purified 2a (45 μL of 23.3 mM stock) was dissolved in 405 μL of 50 mM potassium phosphate buffer (D2O) at pH 5.9, 7.4 and 8.5 (pD 6.3, 7.8 and 8.9), thoroughly mixed and recorded.
# H3 mRNA = conditions: HEK293T, HCHO-treated vs untreated, q = 0.034
# Protocol: (§2) We then investigated whether the H2B-HCHO adduct can be identified in human HEK293T cells treated with HCHO. […] Given that N-terminal amino acids and their modifications can regulate protein stability by affecting degradation (the N-end rule)[27], we next investigated whether addition of HCHO to cells affects H2B turnover. HEK293T cells were treated with cycloheximide (CHX) to inhibit protein synthesis, with addition of HCHO and protein quantification.
# (§3) (ab133512). Secondary antibodies used were anti-mouse IgG, HRP-linked Antibody (Cell Signaling, reference 7076), anti-Rabbit IgG (H+L) HRP Conjugate (Promega reference W4011).
# (§4) HEK293T cells (0.9x106) were seeded into 6 cm dishes as biological triplicates. The next day, cells were treated with 150 μM HCHO (or MQ water control), followed by another cumulative treatment of 225 μM HCHO (or MQ water control) the day after that. Cells were harvested 4 h af ter the second
# H2A mRNA = conditions: HEK293T, HCHO-treated vs untreated, q = 0.043
# Protocol: as §2, §3, §4
# in vitro = conditions: human, hek293t cells
# Protocol: as §2
# (§5) (1 picture or pasted object on this page, not shown here)
# 4-OT [3] = target: T1, 4-OT (Pseudomonas putida, UniProt Q01468); test: cell-based
# T1 sequence (Q01468 2-63 limits assumed): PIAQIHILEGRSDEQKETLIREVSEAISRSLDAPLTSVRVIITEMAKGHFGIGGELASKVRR
# [4] = target: T2, 4-oxalocrotonate tautomerase (4-OT) (Pseudomonas putida, UniProt Q01468); conditions: 4-OT (52.9 µM) pre-incubated with 200 equivalents of HCHO (10.6 mM) 17 h, 37 °C; buffer control complete after 14 min
# T2 sequence (Q01468 2-63): as the sequence (Q01468 2-63 limits assumed) above
# H2B mRNA = conditions: HEK293T, HCHO 150+225 µM vs untreated, q = 0.043
# Protocol: as §2
# (§6) Figure S26 | Stability of proteins with an N-terminal proline in the presence of HCHO and RNA-Seq analyses. a) HEK293T cells were treated with 120 µM HCHO (or acetone, or MQ water control; 100 mM stock solutions of carbonyl compounds in MQ water) for 14 h. The cells were then treated with 100 µM cycloheximide (CHX; from a 100 mM DMSO stock solution) and were harvested after 3 h.
# (§7) Additionally, HEK293T cells were treated with 120 µM HCHO (or acetone, or MQ water control) for 14 h, followed by addition of CHX. 7.5 h after the CHX treatment, a further 180 µM of the carbonyl […]
# as §5, §3
# HEK293T cells (0.9x106) were seeded into 6 cm dishes as biological triplicates. […]
# [5] = target: leukotriene A-4 hydrolase (LTA4H) (Homo sapiens, UniProt P09960); conditions: HEK293T, CHX (100 µM)
# leukotriene A-4 hydrolase (LTA4H), sequence (P09960 2-611 limits assumed): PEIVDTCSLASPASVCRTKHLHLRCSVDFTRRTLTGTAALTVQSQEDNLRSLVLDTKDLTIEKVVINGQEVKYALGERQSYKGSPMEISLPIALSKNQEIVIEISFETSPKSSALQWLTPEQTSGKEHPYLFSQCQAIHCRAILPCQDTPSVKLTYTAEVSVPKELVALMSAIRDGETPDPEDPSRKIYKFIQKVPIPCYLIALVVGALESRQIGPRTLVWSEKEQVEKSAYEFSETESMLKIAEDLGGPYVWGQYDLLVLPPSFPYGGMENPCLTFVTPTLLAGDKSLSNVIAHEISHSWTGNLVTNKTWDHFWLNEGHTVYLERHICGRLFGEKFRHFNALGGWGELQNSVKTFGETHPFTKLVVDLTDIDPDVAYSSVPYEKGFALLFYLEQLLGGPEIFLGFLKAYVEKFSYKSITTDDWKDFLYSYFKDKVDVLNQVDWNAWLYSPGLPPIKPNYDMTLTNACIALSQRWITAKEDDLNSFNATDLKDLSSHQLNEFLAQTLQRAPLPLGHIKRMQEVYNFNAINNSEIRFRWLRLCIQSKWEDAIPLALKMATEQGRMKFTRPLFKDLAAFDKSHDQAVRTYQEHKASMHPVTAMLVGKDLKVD
# Protocol: as §2, §6, §7, §5
# H3 = conditions: HEK293T, HCHO, CHX (100 µM)
# Protocol: as §2, §6, §7, §5
# H2A = conditions: HEK293T, HCHO, CHX (100 µM)
# Protocol: as §2, §6, §7, §5
# H2B = conditions: HEK293T, HCHO, >10 h CHX (100 µM)
# Protocol: as §2, §6, §7, §5
# [6] = target: T2, 4-oxalocrotonate tautomerase (4-OT); test: biochemical
# human JmjC KDM KDM4E = target: T3, human JmjC KDM KDM4E (Homo sapiens, UniProt B2RXH2); test: KDM4E-catalysed H3K9Me3 peptide demethylation, MALDI MS; format: biochemical; conditions: 800 μM NOG instead of 2OG, 24 h
# T3 construct: made in house; host or cells: E. coli BL21(DE3)
# T3 sequence (B2RXH2 with tags, fused parts or gaps): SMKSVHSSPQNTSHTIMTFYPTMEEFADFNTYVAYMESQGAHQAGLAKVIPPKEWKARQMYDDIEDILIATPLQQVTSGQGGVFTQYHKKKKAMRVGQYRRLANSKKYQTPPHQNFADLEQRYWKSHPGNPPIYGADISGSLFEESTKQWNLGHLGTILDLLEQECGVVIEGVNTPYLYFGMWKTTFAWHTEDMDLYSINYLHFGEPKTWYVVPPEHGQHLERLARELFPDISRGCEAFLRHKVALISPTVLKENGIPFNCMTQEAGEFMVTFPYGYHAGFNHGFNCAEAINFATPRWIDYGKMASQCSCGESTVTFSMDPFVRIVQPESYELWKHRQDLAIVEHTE
# 4-OT [7] = target: T1, 4-OT; test: 4-OT absorbance assay (320 nm), kinetic parameters; format: biochemical; conditions: substrate acetaldehyde, 375 µM trans-β-nitrostyrene, 10 µM 4-OT, pH 7.4
smiles,measurement,setting,value
O=C(O)CC[C@@H](C(=O)O)N1CN2CC[C@H]2C1=O [1a],formation rate of HCHO adduct,[1],> 1.73 µM/s
same,"stability of HCHO adduct to 1,3-cyclohexanedione (1,3-CHD)",[2],"underwent 1,3-CHD-enabled reaction to give 1"
O=C(O)CC[C@H](NC(=O)[C@@H]1CCN1CO)C(=O)O [1b],"stability of HCHO adduct to 1,3-cyclohexanedione (1,3-CHD)",[2],"underwent 1,3-CHD-enabled reaction to give 1"
O=C(O)CC[C@@H](C(=O)O)N1CN2CCC[C@H]2C1=O [2a],formation rate of HCHO adduct,[1],0.24 µM/s
same,"stability of HCHO adduct to 1,3-cyclohexanedione (1,3-CHD)",[2],relatively stable
same,stability across a biologically relevant pH range,"[2]; pH 5.9, 7.4 and 8.5",apparently stable
same,stability in the presence of HCHO scavengers cysteine and GSH,[2]; scavengers in 40-fold excess,apparently stable
O=C(O)CC[C@@H](C(=O)O)N1CN2CCCC[C@H]2C1=O [3a],formation rate of HCHO adduct,[1],0.054 µM/s
same,"stability of HCHO adduct to 1,3-cyclohexanedione (1,3-CHD)",[2],relatively stable
C[C@H]1C(=O)N([C@@H](CCC(=O)O)C(=O)O)CN1CO [4a],"stability of HCHO adduct to 1,3-cyclohexanedione (1,3-CHD)",[2],hemiaminal group of 4a was lost to give 4b
"C=O [HCHO, Formaldehyde]","H3 mRNA level, fold less in untreated cells",H3 mRNA,0.42 fold
same,"H2A mRNA level, fold less in untreated cells",H2A mRNA,0.33 fold
same,MNTC,in vitro,> 200 µM
same,EC50,4-OT [3],~350 µM
same,time to near-complete substrate conversion,[4],> 72 min
same,effect on cell proliferation,BL21(DE3) cells; 350 μM HCHO,did not inhibit
same,effect on cell proliferation,BL21(DE3) cells; 700 μM HCHO,only mildly inhibited
same,"H2B mRNA level, fold less in untreated cells",H2B mRNA,0.37 fold
same,HCHO-dependent effect on LTA4H stability,[5],no evidence for a HCHO-dependent effect on its stability
same,H3 levels after prolonged CHX treatment,H3,higher levels
same,H2A levels after prolonged CHX treatment,H2A,higher levels
same,H2B levels after prolonged CHX treatment,H2B,apparently higher H2B levels
same,IC50,[6],< 10000 µM
O=C(O)CNC(=O)C(=O)O [N-oxalylglycine],effect on H3K9Me3 demethylation and +12 Da H2B adduct formation,human JmjC KDM KDM4E,abolished
CC=O [acetaldehyde],Km,4-OT [7],74 mM
"C[C@H](N)C(=O)N[C@@H](CCC(=O)O)C(=O)O [compound 4, AlaGlu] (H-Ala-Glu-OH)",formation rate of HCHO adduct,[1],did not react to give a detected product
